Experimental data published in the NIST ThermoML archive (doi:10.1021/je049576k).
± gives the expanded uncertainty stated by the source.

Conditions: 101.33 kPa, Liquid

| Structure (SMILES) | mass density (298.15 K) [kg/m3] | viscosity (298.15 K) [mPa·s] | mass density (313.15 K) [kg/m3] | viscosity (313.15 K) [mPa·s] |
| --- | --- | --- | --- | --- |
| C1COCO1 [1,3-dioxolane] | 1058.62 ± 0.58 | 0.5886 ± 0.0084 | 1039.97 ± 0.56 | 0.4985 ± 0.0074 |
| CCCCCC [hexane] | 655.07 ± 0.75 | 0.2951 ± 0.005 | 641.27 ± 0.77 | 0.2552 ± 0.0045 |
| CCC(C)O (configuration not stated) [butan-2-ol] | 802.2 ± 0.6 | 3.043 ± 0.037 | 789.59 ± 0.61 | 1.791 ± 0.023 |
